System: whole blood neutrophil CD11b expression (CXCL2-stimulated)
Test: Neutrophil CD11b Stimulation Following Oral Dosing to Rats
Format: in vivo, Lewis rats
Protocol: Rat whole blood, 3 ml, was drawn by cardiac puncture in a syringe containing 100 μl of 0.25 M EDTA (GIBCO, Grand Island, N.Y.). Rat CXCL2 (PeproTech, Rocky Hill, N.J.) stock was made by reconstitution in Kreb's/0.1% BSA (KBSA) at 10 μM. The stock was diluted to “11×” the maximum concentration used in DPBS (GIBCO) and serially diluted in KBSA/DPBS vehicle. […] The tubes were incubated for 30 minutes in a 37° C. bath, with gentle hand agitation every 10 minutes. The samples were then placed on ice for 10 minutes followed by addition of 10 μl of anti-rat-CD11b-FITC or FITC-labeled mouse IgG2a isotype control (both Antigenix America, Huntington Station, N.Y.) and incubated for 30 minutes on ice. FACS Lysing Solution (Becton Dickinson, San Jose, Calif.), 1 ml of 1×, was added with immediate vigorous vortexing, followed by additional vortex after the solution was added to the last sample. Samples were incubated for 10 minutes at room temperature and the leukocytes were pelleted at ˜300×g and washed with DPBS. Cells were resuspended in 650 μl of 1% paraformaldahyde. […] FL1 (green FITC fluorescence, directly relating to CD11b content) of this population was then measured as mean channel fluorescence by analysis with CellQuest software.

EC50 of the CXCL2 concentration response curve (CD11b expression) in treated rats (oral 10 mg/kg, Lewis rats, vehicle-treated rats 4.7 nM (1.9-7.4; 95% C.I.), treated 95% C.I. 10.0-14.7, p<0.001, n=6 per group): 12.3 nM
Compound: Cc1ccc(S(=O)(=O)O)cc1.O=C(Nc1ccc(Cl)c(S(=O)(=O)N2CCNCC2)c1O)Nc1cccc(F)c1Cl [present compound, N-[4-chloro-2-hydroxy-3-(piperazine-1-sulfonyl)phenyl]-N′-(2-chloro-3-fluorophenyl)urea p-toluenesulfonate]
inhibition of whole blood neutrophil CD11b expression (oral dosing to Lewis rats at 10 mg/kg, blood drawn one hour later): active

From US20090170871A1, “IL-8 Receptor Antagonists” (SMITHKLINE BEECHAM CORPORATION, priority 2006, published 2009)
